Values of other authors, collected in patent US12545694B2, “Cannabidiol derivatives, preparation method thereof and use thereof” (CHENGDU BAIYU PHARMACEUTICAL CO., LTD., priority 2020, dated 2026).

Details: human

## C=C(C)[C@@H]1CCC(C)=C[C@H]1c1c(O)cc(CCCCC)cc1O [CBD, cannabidiol]
  oral bioavailability: about 6%
